This note sets out measurements from patent US20240199676A1, “ANTIVIRAL COMPOUNDS AND METHODS OF MAKING AND USING THE SAME” (Gilead Sciences, Inc., priority 2022, published 2024).

What is called EC50 is the concentration giving half of the maximal effect.

Series [1] has as its system Respiratory syncytial virus recombinant with luciferase (RSV-Luc5) in NHBE cells. Put plainly: NHBE RSV-Luc5 384-well Assay (RSV FLUC NHBE 384 V2, Ex. W). It counts as cell-based. The note with it: human respiratory syncytial virus, 72 h, read-out: EC50 RSV FLUC NHBE 384 V2 (per Ex. W). An excerpt: Example W: NHBE RSV-Luc5 384-well Assay (EC50 RSVFLUC NHBE-384)
(§1) Normal Human Bronchial Epithelial (NHBE) cells were purchased from Lonza (Walkersville, MD Cat #CC2540) and maintained in BEGM Bronchial Epithelial Cell Growth Medium BulletKit (Lonza CC-3170).
Cells were thawed, expanded, and were used for experiments at passage 2. Respiratory syncytial virus recombinant with luciferase (RSV-Luc5) (≥1×10^7 Infectious Units/mL (IU/mL) determined by TCID50) was purchased from Microbiologics (Saint Cloud, MN). Viral replication was determined in NHBE cells in the following manner.
(§2) Compounds are prepared in 100% DMSO in 384-well polypropylene plates (Greiner, Monroe, NC, Cat #784201) with 8 compounds per plate in grouped replicates of 4 at 10 serially diluted concentrations (1:3). The serially diluted compounds were transferred to low dead volume Echo plates (Labcyte, Sunnyvale, CA, Cat #LP-0200).
(§3) The test compounds were spotted to 384-well assay plates (Greiner, Monroe, NC, Cat#781091) at 200 nL per well using an Echo acoustic dispenser (Labcyte, Sunnyvale, CA). NHBE cells were harvested and suspended in BEGM Bronchial Epithelial Cell Growth Medium BulletKit and seeded to the pre-spotted assay plates at 5,000 cells per well in 30 μL. RSV-Luc5 virus was diluted in BEGM Bronchial Epithelial Cell Growth Medium BulletKit at 500,000 Infectious Units (IU) per mL and 10 μL per well was added to the assay plates containing cells and compounds, for an MOI of 1. The assay plates were incubated for 3 days at 37° C. and 5% CO2. At the end of incubation, One-Glo reagent (Promega, Madison, WI, Cat #E6120) was prepared. The assay plates and One-Glo reagent were equilibrated to room temperature for at least 15 minutes. 40 μL per well of One-Glo reagent was added and the plates were incubated at room temperature for 15 minutes before reading the luminescence signal on an EnVision multimode plate reader (Perkin Elmer, Waltham, MA). Remdesivir was used as positive control and DMSO was used as negative control. Values were normalized to the positive and negative controls (as 0% and 100% replication, respectively) and data was fitted using non-linear regression analysis by Gilead's dose response tool. The EC50 value for each compound was defined as the concentration reducing the viral replication by 50%.

Series [2] in a line: GI S9 stability (Ex. Z), dog intestinal S9. It is filed as in vitro ADME. Particulars: pooled intestinal S9 fractions; dog intestinal S9, 1.0 mg/mL protein, 2 μM substrate, pH 7.4; read-out: GIS9 DOG T½ (per Ex. Z). The method, then: Example Z: GI S9 stability data:
Stock solutions of test compounds in dimethyl sulfoxide (DMSO) having a final concentration of 10 mM were prepared and used in all experiments. Sekisui XenoTech (Kansas City, KS) provided pooled intestinal S9 fractions. All other chemicals were purchased from Sigma-Aldrich (St. Louis, MO) or VWR (West Chester, PA). Internal Standard/Quench (IS/Q) used to stop reactions was 100 nM labetalol in (by volume) methanol (10%) and acetonitrile (90%).
Stability in Intestinal S9 Fractions: Duplicate aliquots of test compound or positive control substrate were added to S9 stock diluted with phosphate buffered saline (137 mM NaCl, 2.7 mM KCl, 10 mM phosphate buffer), pH 7.4, to obtain a protein concentration of 1.0 mg/mL. The metabolic reactions were initiated by the addition of the substrates to the S9 reaction mixture to a final concentration of 2 μM. At 0, 10, 20, 30, 60 and 120 min, 25 μL aliquots of the reaction mixture were transferred to plates containing 225 μl of IS/Q solution. After quenching, the plates were centrifuged at 3000×g for 30 minutes. 150 μL aliquots of each supernatant were dried down then reconstituted with 300 μL water. Aliquots (10 μL) of the prepared samples were analyzed on a Thermo Q-Exactive mass spectrometer as described below.
Liquid Chromatography—Mass Spectrometry: Quantification of test compounds and control substrate was performed by analyte/internal standard peak area ratio (PAR) values measured on a Thermo Q-Exactive mass spectrometer coupled to a Dionex UltiMate 3000 HPLC with a Leap Technologies HTC PAL autosampler. The column used for analysis was a Waters Acquity BEH C18 (1.7 μm particle size, 2.1×50 mm). Mobile phase A consisted of 0.1% (v/v) formic acid in water. Mobile phase B consisted of 0.1% (v/v) formic acid in acetonitrile. Elution of analytes was achieved by a series of linear gradients varying the proportions of A and B. The mass spectrometer was calibrated on a weekly basis and mass tolerance of 5 ppm was used.
Metabolic stabilities in S9 fractions were determined by measuring the rates of disappearance of test compound and positive control substrate.
Data (% of substrate remaining) were plotted on a semi-log scale and fitted using an exponential decline model:
Where Ct—% of substrate remaining at time=t; C0—% of substrate remaining at time=0; t—time; T½—half-life The Half-life (T½) is determined by the following equation: […]
Assuming a first-order reaction, the slope (k) is extrapolated from the aforementioned plotted data.

Series [3] relates to Respiratory syncytial virus recombinant with luciferase (RSV-Luc5) in NHBE cells. Put plainly: NHBE RSV-Luc5 384-well Assay (EC50 RSVFLUC NHBE-384, Ex. U). It is filed as cell-based. Particulars: human respiratory syncytial virus, 72 h, read-out: EC50 RSV FLUC NHBE 384 (per Ex. U).
Description: Example U. NHBE RSV-Luc5 384-well Assay (EC50 RSVFLUC NHBE-384)
as §1
Cells were thawed, expanded, and were used for experiments at passage 2. Respiratory syncytial virus recombinant with luciferase (RSV-Luc5) (≥1×10^7 Infectious Units/ml (IU/ml) determined by TCID50) was purchased from Microbiologics (Saint Cloud, MN). Viral replication was determined in NHBE cells in the following manner.
as §2
as §3, with “well.” for “well using an Echo acoustic dispenser (Labcyte, Sunnyvale, CA).”

As to `N#C[C@]1(COC(=O)C2CCCCC2)O[C@@H](c2ccc3c(N)ncnn23)[C@H](O)[C@@H]1O` [Compound 19, ((2R,3S,4R,5S)-5-(4-aminopyrrolo[2,1-f][1,2,4]triazin-7-yl)-2-cyano-3,4-dihydroxytetrahydrofuran-2-yl)methyl cyclohexanecarboxylate], the EC50 in series [1] was determined as 10.9 µM. The half-life at 2 μM in series [2] was found to be 0.8 h.
Consider `CC(=O)OC[C@@]1(C#N)O[C@@H](c2ccc3c(N)ncnn23)[C@H](O)[C@@H]1O` [Compound 4, ((2R,3S,4R,5S)-5-(4-aminopyrrolo[2,1-f][1,2,4]triazin-7-yl)-2-cyano-3,4-dihydroxytetrahydrofuran-2-yl)methyl acetate], for which the EC50 in series [3] turned out to be 11 µM; in series [1], 10.7 µM. Further, the half-life at 2 μM in series [2] turned out to be 0.683 h.
In the same order, the values of `CC(C)(C)CC(=O)OC[C@@]1(C#N)O[C@@H](c2ccc3c(N)ncnn23)[C@H](O)[C@@H]1O` [Compound 13, ((2R,3S,4R,5S)-5-(4-aminopyrrolo[2,1-f][1,2,4]triazin-7-yl)-2-cyano-3,4-dihydroxytetrahydrofuran-2-yl)methyl 3,3-dimethylbutanoate] are 10.9 µM, 8.59 µM and 12.6 h.
Taken in the same sequence, the figures for `CC(C)[C@H](N)C(=O)OC[C@@]1(C#N)O[C@@H](c2ccc3c(N)ncnn23)[C@H](O)[C@@H]1O` [Compound 12, ((2R,3S,4R,5S)-5-(4-aminopyrrolo[2,1-f][1,2,4]triazin-7-yl)-2-cyano-3,4-dihydroxytetrahydrofuran-2-yl)methyl L-valinate] were 11.5 µM, 10.7 µM and 0.0833 h.
Taken in the same sequence, the figures for `CCCC(=O)OC[C@@]1(C#N)O[C@@H](c2ccc3c(N)ncnn23)[C@H](O)[C@@H]1O` [Compound 6, ((2R,3S,4R,5S)-5-(4-aminopyrrolo[2,1-f][1,2,4]triazin-7-yl)-2-cyano-3,4-dihydroxytetrahydrofuran-2-yl)methyl butyrate] were 7.71 µM, 7.69 µM and 0.633 h.
On to `CC(C)C(=O)OC[C@@]1(C#N)O[C@@H](c2ccc3c(N)ncnn23)[C@H](OC(=O)C(C)C)[C@@H]1OC(=O)C(C)C` [Compound 20, (2R,3S,4S,5S)-5-(4-aminopyrrolo[2,1-f][1,2,4]triazin-7-yl)-2-cyano-2-((isobutyryloxy)methyl)tetrahydrofuran-3,4-diyl bis(2-methylpropanoate)], for which the EC50 was 31.7 µM in series [3] and 10.4 µM in series [1]. In series [2], the half-life at 2 μM is 0.05 h.
In the case of `CC1(C)CC(C(=O)OC[C@@]2(C#N)O[C@@H](c3ccc4c(N)ncnn34)[C@H](O)[C@@H]2O)C1` [Compound 17, ((2R,3S,4R,5S)-5-(4-aminopyrrolo[2,1-f][1,2,4]triazin-7-yl)-2-cyano-3,4-dihydroxytetrahydrofuran-2-yl)methyl 3,3-dimethylcyclobutane-1-carboxylate], the values for the EC50 in series [3] and in series [1] were 8.09 µM and 8.7 µM, respectively. In series [2], the half-life at 2 μM is 0.8 h.
In the same order, the values of `N#C[C@]1(COC(=O)c2ccccc2)O[C@@H](c2ccc3c(N)ncnn23)[C@H](O)[C@@H]1O` [Compound 2, ((2R,3S,4R,5S)-5-(4-aminopyrrolo[2,1-f][1,2,4]triazin-7-yl)-2-cyano-3,4-dihydroxytetrahydrofuran-2-yl)methyl benzoate] are 7.47 µM, 9.31 µM and 13.2 h.
Taken in the same sequence, the figures for `CCC(CC)C(=O)OC[C@@]1(C#N)O[C@@H](c2ccc3c(N)ncnn23)[C@H](O)[C@@H]1O` [Compound 9, ((2R,3S,4R,5S)-5-(4-aminopyrrolo[2,1-f][1,2,4]triazin-7-yl)-2-cyano-3,4-dihydroxytetrahydrofuran-2-yl)methyl 2-ethylbutanoate] were 8.69 µM, 9.47 µM and 8.5 h.
Taken in the same sequence, the figures for `CC(C)C(=O)OC[C@@]1(C#N)O[C@@H](c2ccc3c(N)ncnn23)[C@H](O)[C@@H]1O` [Compound 1, ((2R,3S,4R,5S)-5-(4-aminopyrrolo[2,1-f][1,2,4]triazin-7-yl)-2-cyano-3,4-dihydroxytetrahydrofuran-2-yl)methyl isobutyrate] were 22.1 µM, 14.4 µM and 2.02 h.
With `CC(C)CC(=O)OC[C@@]1(C#N)O[C@@H](c2ccc3c(N)ncnn23)[C@H](O)[C@@H]1O` [Compound 3, ((2R,3S,4R,5S)-5-(4-aminopyrrolo[2,1-f][1,2,4]triazin-7-yl)-2-cyano-3,4-dihydroxytetrahydrofuran-2-yl)methyl 3-methylbutanoate], the results for the EC50 in series [3] and in series [1] were 8.07 µM and 8.55 µM, respectively. Moreover, the half-life at 2 μM in series [2] worked out at 8.28 h.
As to `N#C[C@]1(COC(=O)C2CC2)O[C@@H](c2ccc3c(N)ncnn23)[C@H](O)[C@@H]1O` [Compound 7, ((2R,3S,4R,5S)-5-(4-aminopyrrolo[2,1-f][1,2,4]triazin-7-yl)-2-cyano-3,4-dihydroxytetrahydrofuran-2-yl)methyl cyclopropanecarboxylate], the EC50 in series [3] came to 9.65 µM; in series [1] it was 10.7 µM. In series [2], the half-life at 2 μM worked out at 10.6 h.
